In patent US12661333B2, “Composition for use in treatment of a biofilm in a subject” (TECHNOLOGICAL UNIVERSITY DUBLIN, priority 2020, dated 2026):

Key:
[1] = system: Klebsiella pneumoniae NCIMB 418; test: Biofilm formation in vitro, crystal violet assay; assay type: cell-based; settings: for reduction of biofilm formation versus control: 24 hours, 37° C., FIG. 1A
Experimental: (§1) FIG. 1: The effect of varying concentrations of DHA on the ability of Klebsiella pneumoniae NCIMB 418 (A) and Enterococcus faecalis ATCC 7080 (B) to form a biofilm in vitro. (10^6 CFU/well was incubated with various concentrations of DHA in a 96 well plate for 24 hours statically at 37° C. Biofilm formation was assessed using the crystal violet assay. Data represents the mean±SD for six independent experiments, carried out in triplicate. One-way ANOVA was performed for statistical analysis. *****P<0.001 compared to both the control (no DHA) and vehicle control (1% DMSO).
FIG. 2: Comparing DNA (16 μM) and Erythromycin (4 μg/ml) individually and adjunct for antibiofilm effects against Klebsiella pneumoniae NCIMB 481 in vitro. 10^6 CFU/well was incubated with each well of a 96 well plate for 24 hours statically at 37° C. Biofilm formation was assessed using the crystal violet assay. Data represents the mean±SD for four independent experiments, carried out in triplicate. One-way ANOVA was performed for statistical analysis. *****P<0.001 compared to both the control (no DHA or Erythromycin), vehicle control (1% DMSO), DHA (16 μM) and Erythromycin (4 μg·mL).
The effect of varying concentrations of DHA on the ability of Klebsiella pneumoniae NCIMB 418 and Enterococcus faecalis ATCC 7080 to form a biofilm in vitro was investigated. 10^6 CFU/well was incubated with various concentrations of DHA in a 96 well plate for 24 hours statically at 37° C. Biofilm formation was assessed using the crystal violet assay. Data represents the mean±SD for six independent experiments, carried out in triplicate. The assay involves seeding cells at 10^^6 CFU/ml in media with DHA. […] The samples is washed again to remove any unbound dye before dissolving the stain in acetic acid and measuring the reading in a spectrophotometer. […]
The effects of DHA (16 μM) and Erythromycin (4 μg/ml) were compared individually and adjunct for antibiofilm effects against Klebsiella pneumoniae NCIMB 481 in vitro. […] Biofilm formation was assessed using the crystal violet assay. […]

[2] = system: human gingival fibroblasts (HGFs); parameters: dose or concentration left out as unconfirmed; settings: exposed for 24 and 48 hours; cited from earlier work
[3] = system: Enterococcus faecalis ATCC 7080; test: Biofilm formation in vitro, crystal violet assay; assay type: cell-based; settings: for reduction of biofilm formation versus control: 24 hours, 37° C., FIG. 1B
Experimental: as §1
The effect of varying concentrations of DHA on the ability of Klebsiella pneumoniae NCIMB 418 and Enterococcus faecalis ATCC 7080 to form a biofilm in vitro was investigated. 10^6 CFU/well was incubated with various concentrations of DHA in a 96 well plate for 24 hours statically at 37° C. Biofilm formation was assessed using the crystal violet assay. Data represents the mean±SD for six independent experiments, carried out in triplicate. The assay involves seeding cells at 10^^6 CFU/ml in media with DHA. Cells were then left for 24 hrs to form biofilms before washing and staining with Crystal Violet. Crystal violet adheres to cells stuck to the sides of the tube/well. The samples is washed again to remove any unbound dye before dissolving the stain in acetic acid and measuring the reading in a spectrophotometer. The colour intensity relates to the level of biofilm present. The more colour the more bacteria in the biofilm. Merritt, J. H., Kadouri, D. E. and O'Toole, G. A. (2005) ‘Growing and Analyzing Static Biofilms’, Current Protocols in Microbiology, Chapter 1(Jul), p. Unit 1B.1.

[4] = system: human periodontal ligament cells (hPDLCs); parameters: dose or concentration left out as unconfirmed; settings: exposed for 24 and 48 hours; cited from earlier work
[5] = summary of FIG. 1, concentration not stated

## CC/C=C\C/C=C\C/C=C\C/C=C\C/C=C\C/C=C\CCC(=O)O [DHA, docosahexaenoic acid]
[1]; DHA 6.25 μM
  reduction of biofilm formation versus control: ~40%
[1]; DHA 100 μM
  reduction of biofilm formation versus control: ~65%
[1]; [5]
  reducing biofilm formation: approximately 60%
[2]
  cytotoxic effects: cytotoxic effects
[3]; DHA 6.25 μM
  reduction of biofilm formation versus control: ~20%
[3]; DHA 100 μM
  reduction of biofilm formation versus control: ~65%
[3]; [5]
  reducing biofilm formation: approximately 60%
[4]
  cytotoxic effects: cytotoxic effects
